{"source": "patent US7459458B2", "about": "“Polymorph of N-methyl-N-(3-{3-[2-thienylcarbonyl]-pyrazol-[1,5-α]-pyrimidin-7-yl}phenyl)acetamide and compositions and methods related thereto” (Neurocrine Biosciences, Inc., priority 2002, dated 2008)", "assay": "Interconversion experiments (slurry) to evaluate thermodynamic stability of Compound 1 at room temperature", "format": "physicochemical", "settings": "agitated 16 days", "method": "Interconversion experiments were carried out to evaluate the thermodynamic stability of Compound 1 at room temperature. Three slurries were prepared by making saturated isopropanol solutions of Compound 1, filtering the solutions through 0.2 μm filters, and then adding an amount (in the form of crystals) of a polymorphic form of Compound 1. To the first slurry, equal amounts of both polymorph Form II and polymorph Form III (i.e., approximately 25 mg each) were added; to the second slurry, equal amounts of polymorph From I and polymorph Form III (i.e., approximately 25 mg each) were added; and to the third slurry, approximately 25 mg of polymorph Form III was added. The slurries were then agitated for 16 days. The resulting solids were collected by vacuum filtration, air-dried, and analyzed using XRPD.", "data": [{"smiles": "CC(=O)N(C)c1cccc(-c2ccnc3c(C(=O)c4cccs4)cnn23)c1", "note": "[polymorph Form III, N-methyl-N-(3-{3-[2-thienylcarbonyl]-pyrazol-[1,5-α]-pyrimidin-7-yl}phenyl)acetamide]", "values": [{"measurement": "solid form obtained from slurry (XRPD)", "setting": "saturated isopropanol slurry seeded with approx. 25 mg polymorph Form III alone", "result": "exclusively polymorph Form III"}, {"measurement": "solid form obtained from slurry (XRPD)", "setting": "saturated isopropanol slurry seeded with equal amounts (approx. 25 mg each) of polymorph Form I and Form III", "result": "polymorph Form III as the predominant product, with only a minor amount of polymorph Form I"}, {"measurement": "solid form obtained from slurry (XRPD)", "setting": "saturated isopropanol slurry seeded with equal amounts (approx. 25 mg each) of polymorph Form II and Form III", "result": "exclusively polymorph Form III"}]}]}
